Seven compounds from ChEMBL document CHEMBL1201862, “PubChem BioAssay data set” (2004) can be followed below.

Test systems include HCT-15; HL-60; HOP-62; HT-29; NCI-H23; NCI-H522; OVCAR-4; RPMI-8226; RXF 393; SF-268; SF-295; SK-MEL-28; SK-MEL-2; SNB-19; SNB-75; SR; SW-620; TK-10; UACC-257; UACC-62.
Holding throughout (assay): NCI-60 cell line screen, 48 h

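Each compound was tested at five concentrations against cells in 96-well plates for 48 hours. GI50: concentration for 50% inhibition of growth.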 The source made the active and inactive calls. Rule as the data show it: active = GI50 up to about 1.1 µM and inactive = higher.

Consider `CNC1C(O)CC(OC2C/C=C(\C)C/C(C)=C/C=C/CCC(C)CNC(=O)/C=C/C=C/C2C)OC1C` (stereo not given), for which the GI50 in the assay with HCT-15 was 0.202 µM; with HL-60, 0.153 µM (active); with HOP-62 it was 1.03 µM (active); in the assay on HT-29, 0.224 µM (active); with NCI-H23, 0.863 µM (active); with NCI-H522 it was 0.973 µM (active). In addition, the GI50 in the assay on OVCAR-4 was 0.303 µM (active); with RPMI-8226, 0.22 µM (active); in the assay with RXF 393, 1.08 µM (active); in the assay with SF-268 it was 0.746 µM (active); with SF-295, 0.25 µM (active); in the assay on SK-MEL-28, 0.667 µM (active). Also, the GI50 was 1.19 µM (inactive) with SK-MEL-2; 2.84 µM (inactive) in the assay with SNB-19; 0.711 µM (active) with SNB-75; 0.24 µM (active) in the assay with SR; 0.12 µM (active) with SW-620; 1.1 µM (active) with TK-10. The GI50 is 0.667 µM (active) in the assay on UACC-257 and 0.44 µM (active) with UACC-62.

As to `CCN(CC)C(=S)/N=C(\SC(=S)N(CC)CC)c1ccccc1`, the GI50 in the assay with HCT-15 is 27.7 µM; with HL-60, 1.27 µM (inactive); with HOP-62, 29.9 µM (inactive); in the assay on HT-29 it was 0.392 µM (active); in the assay with NCI-H23 it was 36.9 µM (inactive); in the assay with NCI-H522, 0.119 µM (active). Also, the GI50 in the assay with OVCAR-4 was 27.3 µM (inactive); with RPMI-8226 it was 2.48 µM (inactive); in the assay with RXF 393, > 49.3 µM (inactive); with SF-268 it was 41.6 µM (inactive); in the assay on SF-295 it was 42.6 µM (inactive); in the assay with SK-MEL-28, 57 µM (inactive). Besides, the GI50 was 30.7 µM (inactive) with SK-MEL-2; > 94.8 µM (inactive) in the assay on SNB-19; 24.1 µM (inactive) in the assay on SNB-75; 0.391 µM (active) in the assay on SR; > 66.8 µM (inactive) in the assay with SW-620; > 89.5 µM (inactive) in the assay on TK-10. Further, the GI50 with UACC-257 was 45.7 µM (inactive); in the assay with UACC-62, 39.6 µM (inactive).

As to `COc1ccc(NC(=O)CC(=O)n2nc(C)c(/N=N/c3cccc(C)c3)c2C)cc1`, the GI50 is greater than 100 µM in the assay on HCT-15; > 100 µM (inactive) with HL-60; 37.6 µM (inactive) in the assay with HOP-62; > 100 µM (inactive) with HT-29; > 100 µM (inactive) with NCI-H23; > 100 µM (inactive) in the assay with NCI-H522. For the same compound, the GI50 is > 100 µM (inactive) in the assay with OVCAR-4; 91.8 µM (inactive) in the assay on RPMI-8226; > 100 µM (inactive) in the assay on RXF 393; > 100 µM (inactive) in the assay with SF-268; > 100 µM (inactive) in the assay with SF-295; > 100 µM (inactive) with SK-MEL-28. Besides, the GI50 in the assay on SK-MEL-2 is > 100 µM (inactive); in the assay with SNB-19, > 100 µM (inactive); with SNB-75, 40.8 µM (inactive); in the assay on SR, 91.6 µM (inactive); in the assay on SW-620 it was > 100 µM (inactive); with TK-10, > 100 µM (inactive). In addition, the GI50 in the assay on UACC-257 is > 10 µM (inactive); with UACC-62 it was > 100 µM (inactive).

Regarding `COc1cc2c(oc(=O)c3c4oc([Si](C)(C)C)cc4cc(OC)c23)c2cccc(O)c12`, the GI50 in the assay on HCT-15 is greater than 100 µM; in the assay on HL-60, > 100 µM (inactive); in the assay with HOP-62, > 100 µM (inactive); with HT-29, > 100 µM (inactive); in the assay on NCI-H23, > 100 µM (inactive); with NCI-H522, > 100 µM (inactive). For the same compound, the GI50 with OVCAR-4, with RPMI-8226, with RXF 393, in the assay on SF-268, in the assay on SF-295 and in the assay on SK-MEL-28 was > 100 µM (inactive) throughout. Moreover, the GI50 in the assay with SK-MEL-2 is > 100 µM (inactive); with SNB-19, > 100 µM (inactive); in the assay with SNB-75, 36.4 µM (inactive); with SR, > 100 µM (inactive); in the assay on SW-620, > 100 µM (inactive); in the assay on TK-10, > 100 µM (inactive). Moreover, the GI50 in the assay with UACC-257 and in the assay with UACC-62 was > 100 µM (inactive) each time.

Turning to `COC(=O)C1([C@@H]2C[C@@H](O)[C@]3(C)CC/C=C(\C)CCC[C@H](C)[C@H](O)[C@@H]2O3)CC1`, the GI50 in the assay with HCT-15 was 34.9 µM; in the assay on HL-60, > 100 µM (inactive); with HOP-62, 76.4 µM (inactive); in the assay on HT-29 it was 42.5 µM (inactive); in the assay with NCI-H23, 50.4 µM (inactive); in the assay with NCI-H522, 38.5 µM (inactive). The GI50 in the assay with OVCAR-4 is 45.9 µM (inactive); in the assay on RPMI-8226 it was 50.7 µM (inactive); in the assay with RXF 393, 52 µM (inactive); with SF-268, 64.7 µM (inactive); in the assay on SF-295, 43.1 µM (inactive); in the assay on SK-MEL-28, > 100 µM (inactive). In addition, the GI50 in the assay with SK-MEL-2 was 73.3 µM (inactive); in the assay on SNB-19, 46.7 µM (inactive); in the assay with SNB-75, 0.286 µM (active); in the assay with SR, 39.4 µM (inactive); in the assay on SW-620, 95.9 µM (inactive); in the assay with TK-10 it was 57.7 µM (inactive). For the same compound, the GI50 in the assay with UACC-257 was 56.1 µM (inactive); with UACC-62 it was 66.8 µM (inactive).

Consider `O=[N+]([O-])c1ccc(N/N=C/c2ccc(OCCCCCCCCCCCO)cc2)c([N+](=O)[O-])c1`, for which the GI50 in the assay on HCT-15 was 9.12 µM; with HL-60 it was 5.56 µM (inactive); with HOP-62, 4.39 µM (inactive); in the assay on HT-29, 1.48 µM (inactive); in the assay on NCI-H23 it was 14.4 µM (inactive); in the assay with NCI-H522, 2.35 µM (inactive). The GI50 in the assay on OVCAR-4 is 4.13 µM (inactive); in the assay with RPMI-8226, 30.9 µM (inactive); in the assay on RXF 393, 2.07 µM (inactive); with SF-268, 2.84 µM (inactive); with SF-295, 3.24 µM (inactive); in the assay on SK-MEL-28, 4 µM (inactive). The GI50 in the assay with SK-MEL-2 is 10.3 µM (inactive); with SNB-19, 6.12 µM (inactive); with SNB-75, 1.94 µM (inactive); in the assay on SR, 2.5 µM (inactive); with SW-620, 4.84 µM (inactive); in the assay with TK-10 it was 5.19 µM (inactive). Further, the GI50 in the assay with UACC-257 is 4.91 µM (inactive); in the assay on UACC-62 it was 2.32 µM (inactive).

As to `COc1cccc2c1C(=O)c1c(O)c3c(c(O)c1C2=O)C[C@@](O)(C(C)=O)CC3OC1CC(OC2CC(N)C(O)C(C)O2)C(O)C(C)O1` (stereo not given in full), the GI50 with HCT-15 is greater than 85.1 µM; in the assay on HL-60 it was 10.6 µM (inactive); in the assay on HOP-62 it was 36.8 µM (inactive); with HT-29, 39.5 µM (inactive); in the assay on NCI-H23, 34.9 µM (inactive); in the assay with NCI-H522, 45.4 µM (inactive). For the same compound, the GI50 was > 100 µM (inactive) in the assay on OVCAR-4; 18.2 µM (inactive) in the assay with RPMI-8226; 83 µM (inactive) in the assay with RXF 393; 31.3 µM (inactive) in the assay with SF-268; 49 µM (inactive) with SF-295; > 72.4 µM (inactive) with SK-MEL-28. For the same compound, the GI50 in the assay on SK-MEL-2 was 67.6 µM (inactive); in the assay with SNB-19, 21.1 µM (inactive); in the assay on SNB-75 it was 22.1 µM (inactive); with SR, > 24.4 µM (inactive); in the assay with SW-620, 32.7 µM (inactive); in the assay with TK-10 it was > 100 µM (inactive). Besides, the GI50 in the assay on UACC-257 was > 67.5 µM (inactive); in the assay on UACC-62, 66.1 µM (inactive).
